Reference: ChEMBL document CHEMBL4665636, “Spirooxindole-pyrrolidine heterocyclic hybrids promotes apoptosis through activation of caspase-3” (Bioorg Med Chem, 2019)
The source made the active and inactive calls. The calls are words filed in the database; no cut-off is given here.

Legend:
A549 [1] = test: Antiproliferative activity against human A549 cells assessed as reduction in cell proliferation measured after 24 hrs by MTT assay; format: functional, cell-based; conditions: A549, 24 h
[2] = Cytotoxicity against human MCF10 cells assessed as reduction in cell viability up to 200 uM measured up to 48 hrs by MTT assay; format: cell-based; conditions: mcf10, 48 h
[3] = Cytotoxicity against human PCS-130-010 cells assessed as reduction in cell viability up to 200 uM measured up to 48 hrs by MTT assay; format: cell-based; conditions: pcs-130-010, 48 h
Jurkat [4] = test: Antiproliferative activity against human Jurkat cells assessed as reduction in cell proliferation measured after 24 hrs by MTT assay; format: functional, cell-based
Jurkat [5] = test: Antiproliferative activity against human Jurkat cells assessed as reduction in cell proliferation measured after 48 hrs by MTT assay; format: functional, cell-based
A549 [6] = test: Antiproliferative activity against human A549 cells assessed as reduction in cell proliferation measured after 48 hrs by MTT assay; format: functional, cell-based; conditions: A549, 48 h
A549 [7] = test: Induction of apoptosis in human A549 cells assessed as early apoptotic cells at IC50 measured after 48 hrs by annexicV-FITC/propidium iodide staining based flow cytometry analysis (reference value: 3.02 %); format: functional
A549 [8] = test: Induction of apoptosis in human A549 cells assessed as late apoptotic cells at IC50 measured after 24 hrs by annexicV-FITC/propidium iodide staining based flow cytometry analysis (reference value: 0.5 %); format: functional
A549 [9] = test: Induction of apoptosis in human A549 cells assessed as late apoptotic cells at IC50 measured after 48 hrs by annexicV-FITC/propidium iodide staining based flow cytometry analysis (reference value: 0 %); format: functional
A549 [10] = test: Induction of apoptosis in human A549 cells assessed as distribution of cleaved caspase 3 in nuclei at IC50 after 24 to 48 hrs by FITC staining based microscopy analysis; format: functional, cell-based; conditions: time hrs 24-48
A549 [11] = test: Induction of apoptosis in human A549 cells assessed as distribution of cleaved caspase 3 in cytoplasm at IC50 after 24 to 48 hrs by FITC staining based microscopy analysis; format: functional, cell-based; conditions: time hrs 24-48
A549 [12] = test: Induction of apoptosis in human A549 cells assessed as viable cells at IC50 measured after 24 hrs by annexicV-FITC/propidium iodide staining based flow cytometry analysis (reference value: 99.11 %); format: functional
A549 [13] = test: Induction of apoptosis in human A549 cells assessed as early apoptotic cells at IC50 measured after 48 hrs by annexicV-FITC/propidium iodide staining based flow cytometry analysis (reference value: 0.33 %); format: functional
A549 [14] = test: Induction of apoptosis in human A549 cells assessed as early apoptotic cells at IC50 measured after 24 hrs by annexicV-FITC/propidium iodide staining based flow cytometry analysis (reference value: 0.16 %); format: functional
A549 [15] = test: Induction of apoptosis in human A549 cells assessed as effect on viable cells by measuring fluorescence intensity IC50 measured after 24 hrs by annexicV-FITC/propidium iodide staining based flow cytometry analysis (reference value: 96.25 %); format: functional
A549 [16] = test: Induction of apoptosis in human A549 cells assessed as necrotic cells at IC50 measured after 48 hrs by annexicV-FITC/propidium iodide staining based flow cytometry analysis (reference value: 0 %); format: functional
A549 [17] = test: Induction of apoptosis in human A549 cells assessed as viable cells at IC50 measured after 48 hrs by annexicV-FITC/propidium iodide staining based flow cytometry analysis (reference value: 99.67 %); format: functional
A549 [18] = test: Induction of apoptosis in human A549 cells assessed as viable cells by measuring fluorescence intensity at IC50 measured after 48 hrs by annexicV-FITC/propidium iodide staining based flow cytometry analysis (reference value: 96.89 %); format: functional
A549 [19] = test: Induction of apoptosis in human A549 cells at IC50 measured after 24 hrs by annexicV-FITC/propidium iodide staining based flow cytometry analysis (reference value: 3.63 %); format: functional
A549 [20] = test: Induction of apoptosis in human A549 cells assessed as necrotic cells at IC50 measured after 24 hrs by annexicV-FITC/propidium iodide staining based flow cytometry analysis (reference value: 0.23 %); format: functional

SMILES	IC50 (A549 [1]) [µM]	Activity [2]	Activity [3]	IC50 (Jurkat [4]) [µM]	IC50 (Jurkat [5]) [µM]	IC50 (A549 [6]) [µM]	Activity (A549 [7]) [%]	Activity (A549 [8]) [%]	Activity (A549 [9]) [%]	Activity (A549 [10])	Activity (A549 [11])	Activity (A549 [12]) [%]	Activity (A549 [13]) [%]	Activity (A549 [14]) [%]	Activity (A549 [15]) [%]	Activity (A549 [16]) [%]	Activity (A549 [17]) [%]	Activity (A549 [18]) [%]	Activity (A549 [19]) [%]	Activity (A549 [20]) [%]
O=C1Nc2ccccc2C12NC(Cc1ccc(O)cc1)C([N+](=O)[O-])C2c1cccc([N+](=O)[O-])c1 (centres undefined)	78.4	Non-Toxic	Non-Toxic	74.6	48.6	117	–	–	–	–	–	–	–	–	–	–	–	–	–	–
Cc1ccc(C2C([N+](=O)[O-])C(Cc3ccc(O)cc3)NC23C(=O)Nc2ccccc23)cc1 (centres undefined)	106	Non-Toxic	Non-Toxic	114	47.8	56.7	–	–	–	–	–	–	–	–	–	–	–	–	–	–
COc1ccc(C2C([N+](=O)[O-])C(Cc3ccc(O)cc3)NC23C(=O)Nc2ccc(OC(F)(F)F)cc23)cc1 (centres undefined)	53.5	Non-Toxic	Non-Toxic	62.9	42	41.6	–	–	–	–	–	–	–	–	–	–	–	–	–	–
O=C1Nc2ccc(OC(F)(F)F)cc2C12NC(Cc1ccc(O)cc1)C([N+](=O)[O-])C2c1ccc(Br)cc1 (centres undefined)	51.4	Non-Toxic	Non-Toxic	67.2	44.1	37.2	–	–	–	–	–	–	–	–	–	–	–	–	–	–
Cc1ccc(C2C([N+](=O)[O-])C(Cc3ccc(O)cc3)NC23C(=O)Nc2ccc(OC(F)(F)F)cc23)cc1 (centres undefined)	38.7	Non-Toxic	Non-Toxic	52.8	42.9	29.6	70.35	9.63	17.79	Active	Active	58.92	24.18	31.45	38.62	23.2	34.83	29.53	63.87	0
O=C1Nc2ccccc2C12NC(Cc1ccc(O)cc1)C([N+](=O)[O-])C2c1ccc(Br)cc1 (centres undefined)	59.1	Non-Toxic	Non-Toxic	73.4	43.2	39.4	–	–	–	–	–	–	–	–	–	–	–	–	–	–
O=C1Nc2ccc(OC(F)(F)F)cc2C12NC(Cc1ccc(O)cc1)C([N+](=O)[O-])C2c1ccc(Cl)cc1 (centres undefined)	44.9	Non-Toxic	Non-Toxic	67.7	44.8	38.1	–	–	–	–	–	–	–	–	–	–	–	–	–	–
O=C1Nc2ccc(OC(F)(F)F)cc2C12NC(Cc1ccc(O)cc1)C([N+](=O)[O-])C2c1cccc([N+](=O)[O-])c1 (centres undefined)	65	Non-Toxic	Non-Toxic	83.3	50.1	61.2	–	–	–	–	–	–	–	–	–	–	–	–	–	–
O=C1Nc2ccc(OC(F)(F)F)cc2C12NC(Cc1ccc(O)cc1)C([N+](=O)[O-])C2c1ccccc1 (centres undefined)	45.8	Non-Toxic	Non-Toxic	65.8	45	44.7	–	–	–	–	–	–	–	–	–	–	–	–	–	–
CC[C@@]1(O)C(=O)OCc2c1cc1n(c2=O)Cc2cc3ccccc3nc2-1 [CAMPTOTHECIN]	50.9	–	–	51.5	22	32.1	61.13	28.49	11.17	Active	Active	54.71	30.71	10.49	58.66	4.14	53.97	39.71	37.51	6.31
COc1ccc(C2C([N+](=O)[O-])C(Cc3ccc(O)cc3)NC23C(=O)Nc2ccccc23)cc1 (centres undefined)	59.2	Non-Toxic	Non-Toxic	76.2	47.5	47.8	–	–	–	–	–	–	–	–	–	–	–	–	–	–
O=C1Nc2ccccc2C12NC(Cc1ccc(O)cc1)C([N+](=O)[O-])C2c1ccccc1 (centres undefined)	78.9	Non-Toxic	Non-Toxic	98.3	61.6	66.6	–	–	–	–	–	–	–	–	–	–	–	–	–	–
O=C1Nc2ccccc2C12NC(Cc1ccc(O)cc1)C([N+](=O)[O-])C2c1ccc(Cl)cc1 (centres undefined)	74.4	Non-Toxic	Non-Toxic	77.8	51.5	59.2	–	–	–	–	–	–	–	–	–	–	–	–	–	–
